These results are taken from US6130243A, “1,4-benzodioxin derivatives” (Nisshin Flour Milling Co., Ltd., priority 1995, dated 2000).

For assay [1], the system named is male KKAy mice with hyperglycemia. Briefly: Anti-hyperglycemic activity in male KKAy mice. The class given is in vivo, mouse. Particulars: 1 mg/kg, orally for 4 days, measured on 5th day; hydrochloride. Here is the method:
The anti-hyperglycemic effect of the present compounds was determined using male KKAy mice with hyperglycemia of 300 mg/dl or more. The compound was orally administrated successively to the hyperglycemic mice for 4 days, and the blood glucose level was measured on the 5th day. The activity of the compounds was compared in terms of percent reduction in blood glucose level (a percentage of the blood glucose level after administration to that before administration). The measurement of blood glucose level was made by the method in which tail vein of mice was dissected with a scalpel and the blood was dropped onto an electrode of glucose sensor (Touekou Super, available from Kodama).

For assay [2], the target named is T1, β3 (Rattus norvegicus, UniProt P26255).
T1 construct: determined by their activity to stimulate adipocyte lipolysis; from tissue; host or cells: adipocytes isolated with collagenase from rat epididymal fat pads
T1 sequence (P26255 whole entry): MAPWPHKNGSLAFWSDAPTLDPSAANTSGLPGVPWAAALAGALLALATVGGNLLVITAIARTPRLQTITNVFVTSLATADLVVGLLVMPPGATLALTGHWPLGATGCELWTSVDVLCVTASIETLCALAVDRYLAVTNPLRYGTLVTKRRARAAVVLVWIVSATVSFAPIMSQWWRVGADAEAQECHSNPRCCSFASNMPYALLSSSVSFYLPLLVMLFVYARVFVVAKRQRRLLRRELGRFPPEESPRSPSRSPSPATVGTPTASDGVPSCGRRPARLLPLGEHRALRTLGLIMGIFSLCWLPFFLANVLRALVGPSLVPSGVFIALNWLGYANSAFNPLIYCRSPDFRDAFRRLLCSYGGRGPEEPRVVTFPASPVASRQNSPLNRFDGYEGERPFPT
Briefly: β3 agonisitic activity in rats (stimulation of adipocyte lipolysis, rat epididymal fat pads). The assay is classed as cell-based. The note with it: rat adipocytes, 37° C., 120 minutes; EC50 relative to compound's own maximum rate of lipolysis; hydrochloride; read-out: Lipolysis Molar EC50 value. Here is the method:
β3 agonisitic activity in rats
The β3 agonisitic effect of the compounds of the present invention was determined by their activity to stimulate adipocyte lipolysis. Rat epididymal fat pads were excised and placed in a buffer containing the following composition: 130 mM sodium chloride, 4.7 mM potassium chloride, 1.25 mM magnesium sulfate, 2.8 mM calcium chloride, 10 mM HEPES, 2.5 mM sodium dihydrogenphosphate, 1 g/l glucose and 1% fatty acid-free serum albumin (pH 7.6). All the following procedures were carried out in the above-mentioned buffer. 5 g of a tissue was transferred to a plastic bottle with 10 ml of the buffer solution in which 0.1% collagenase (available from Worthington Biochemical corporation) was added.
The tissue was incubated at 37° C. for about 75 minutes with gentle shaking. After the cell suspension was filtered through nylon meshes (No. 100), the cells were washed three times with two volumes of the buffer, and it was again filtered through nylon meshes. The volume was adjusted with the buffer so that the adipocyte was brought to 20% volume. A 0.1 ml aliquot of the cell suspension was added to plastic test tubes with 0.3 ml of the buffer containing vehicle or compound. The cells were incubated at 37° C. for 120 minutes with gentle shaking. The reaction solution (0.3 ml) was transferred to a centrifuge tube with […] of silicone oil (specific gravity 0.96, available from Shinetsu Chemical Industry), centrifuged at 18,500×g for one minute, and the reaction was stopped by removing the adipocyte from the buffer.
The amount of glycerol generated from the hydrolysis of triglycerides in the buffer was determined by a method using glycerol-3-phosphate oxidase/p-chlorophenol. […] of the buffer was added to a 96-well plate which contained 0.2 ml of an assay mixture having the following composition: 50 mM Tris (pH 7.5), 5.4 mM p-chlorophenol, 250 mg/ml adenosine-5'-triphosphate disodium, 150 mg 4-aminoantipyrine, 250 U/l glycerol kinase, 500 U/l glycerol-3-phosphate oxidase, 1250 U/l horseradish peroxidase. The plate was incubated at 37° C. for 15 minutes, and then an absorbance at 505 nm was determined. The molar EC50 value is the molar concentration of compound that gives 50% of that compound's own maximum rate of lipolysis.

The target in another assay is T2, human β3 receptor (Homo sapiens, UniProt P13945).
T2 construct: The human neuroblastoma cells (SK-N-MC) was available from American Type Culture Collection (HTB 10); host or cells: SK-N-MC human neuroblastoma cells
T2 sequence (P13945 whole entry): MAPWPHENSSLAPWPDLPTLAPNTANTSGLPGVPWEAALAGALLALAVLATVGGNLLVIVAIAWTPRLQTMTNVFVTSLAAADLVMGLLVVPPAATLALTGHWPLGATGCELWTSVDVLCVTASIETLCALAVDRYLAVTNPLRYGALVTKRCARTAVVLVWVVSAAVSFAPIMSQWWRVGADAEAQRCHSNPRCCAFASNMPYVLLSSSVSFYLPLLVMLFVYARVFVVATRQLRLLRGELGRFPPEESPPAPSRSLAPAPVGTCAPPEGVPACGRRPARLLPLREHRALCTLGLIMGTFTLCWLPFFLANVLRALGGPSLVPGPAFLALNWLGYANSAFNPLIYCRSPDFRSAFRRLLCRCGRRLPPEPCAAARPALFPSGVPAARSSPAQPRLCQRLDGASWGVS
Nature of the assay: β3 agonistic activity on human β3 receptor (cAMP production in SK-N-MC human neuroblastoma cells). The assay is classed as cell-based. Particulars: 0.5 h, 10^-6 M, 37° C., 30 minutes, vs maximum of isopreterenol at 10^-6 M, hydrochloride, read-out: Ability of cAMP production at 10^-6 M, % (vs. Isopreterenol (ISP)). The method, then:
β3 agonistic activity on human β3 receptor
The β3 agonistic activity of the compounds was determined by their abilities to stimulate the intracellular cAMP production of human neuroblast. The human neuroblastoma cells (SK-N-MC) was available from American Type Culture Collection (HTB 10), and the cells were cultured under the atmosphere of 5% CO2 at 37° C. on a 12-well plate in Dulbeccos' modified Eagle's medium containig 10% fetal calf serum. The SK-N-MC cells on reaching semi-confluence were washed twice with 1 ml of Hank's balanced salt solution (HBSS). After the cells were treated with 0.8 ml of HBSS containing 0.25 mM isobutylmethyl-xanthine at room temperature for 5 minutes, 0.1 ml of a test solution was added. Further, after incubation at 37° C. for 30 minutes, the reaction solution was aspirated, and washed twice with 2 ml of an ice-cooled phosphate-buffered saline (PBS). The cells were disrupted with 5 mM Tris buffer (pH 7.4) containing 2 mM EDTA, centrifuged at 18,500×g for one minute, and cAMP concentration in the supernatant was determined by EIA kit (available from Amersham). The ability of cAMP production was determined as a percentage of the compound to maximum activity of cAMP production of isopreterenol at 10^-6 M concentration (Proc. Natl. Acad. Sci. USA, 90, 3665, 1993).
In general terms: Cyclic AMP is a second messenger, typically raised through Gs and lowered through Gi signalling.

For assay [3] the following is noted: in vivo; cited from earlier work.
Assay [4] has as its system animal models of type II diabetes. Particulars: in vivo; cited from earlier work.
For a further assay, the system named is β1 or β2. Particulars: thought to cause side-effects; cited from earlier work.
The target in assay [5] is T1, β3. The note with it: Nature, Vol. 309, 163, 1984; cited from earlier work.
Assay [6] concerns β3. Particulars: cited from earlier work.

Molecules are shown by their SMILES. Where a name gives a salt, the structure may show the parent alone.

By EC50 is commonly meant the concentration that produces a half-maximal response. Regarding `COC(=O)C1COc2cc(CC(C)NCC(O)c3cccc(OC)c3)ccc2O1` (stereo not drawn) [Example 1, 6-{2-[2-Hydroxy-2-(3-methoxyphenyl)ethyl]amino}propyl-2,3-dihydro-1,4-benzodioxin-2-carboxylic acid methyl ester], the “Percent reduction in blood glucose level, %” value (shortened to “Percent reduction … %”) in assay [1] was determined as 53%. Further, the EC50 on β3 [2] was 46 nM. For the same molecule, at human β3 receptor, the Emax at 1 µM came to 21%. Consider `CCOC(=O)[C@H]1COc2cc(C[C@@H](C)NC[C@H](O)c3cccc(Cl)c3)ccc2O1` [Example 28, (2R,2'R,2"R)-6-{2-[2-(3-Chlorophenyl)-2-hydroxyethyl]amino}propyl-2,3-dihydro-1,4-benzodioxin-2-carboxylic acid ethyl ester hydrochloride], for which the “Percent reduction … %” value in assay [1] stood at 42%. Also, the EC50 on β3 [2] amounted to 0.1 nM.

On to `COC(=O)COc1ccc(C[C@@H](C)NC[C@H](O)c2cccc(Cl)c2)cc1` (relative stereo) [BRL 35135], for which, in assay [3], the “anti-obesity activity, in words” value was “anti-obesity activity”. The “anti-hyperglycemic activity, in words” value in assay [4] is given as “anti-hyperglycemic activity”. The “β1 or β2 agonistic activity, in words” value in the assay on β1 or β2 was “has β1 or β2 agonistic activity”. Further, the “lipolytic activity (β3) in rats, in words” value on β3 [5] is recorded as “lipolytic activity (β3) in rats”. Moreover, the “β3 agonistic activity, in words” value in the assay on β3 [6] was “has β3 agonistic activity”. As to `COC(=O)C1COc2cc(CC(C)NCC(O)c3ccc4c(c3)OCO4)ccc2O1` (stereo not drawn) [Example 5, 6-[2-(2-Hydroxy-2-piperonylethyl)amino]propyl-2,3-dihydro-1,4-benzodioxin-2-carboxylic acid methyl ester], the EC50 on β3 [2] was 100 nM. Consider `CCOC(=O)[C@@H]1COc2cc(C[C@H](C)NC[C@H](O)c3cccc(Cl)c3)ccc2O1` [Example 31, (2S,2'S,2"R)-6-{2-[2-(3-Chlorophenyl)-2-hydroxyethyl]amino}propyl-2,3-dihydro-1,4-benzodioxin-2-carboxylic acid ethyl ester], for which the EC50 at β3 [2] was 100 nM. Same read-out and setting: as for `CCOC(=O)C1COc2ccc(CC(C)NCC(O)c3ccccc3)cc2O1` (stereo not drawn) [Example 4, 7-[2-(2-Hydroxy-2-phenylethyl)amino]propyl-2,3-dihydro-1,4-benzodioxin-2-carboxylic acid ethyl ester], the figure is 56 nM.

Turning to `CCOC(=O)[C@H]1COc2cc(C[C@H](C)NC[C@H](O)c3cccc(Cl)c3)ccc2O1` [Example 29, (2R,2'S,2"R)-6-{2-[2-(3-Chlorophenyl)-2-hydroxyethyl]amino}propyl-2,3-dihydro-1,4-benzodioxin-2-carboxylic acid ethyl ester], the “Percent reduction … %” value in assay [1] was determined as 54%. For the same molecule, the EC50 on β3 [2] came to 1.7 nM. For the molecule `CCOC(=O)C1COc2cc(CC(C)NCC(O)c3ccccc3)ccc2O1` (stereo not drawn) [Example 3, 6-[2-(2-Hydroxy-2-phenylethyl)amino]propyl-2,3-dihydro-1,4-benzodioxin-2-carboxylic acid ethyl ester], the “Percent reduction … %” value in assay [1] was 63%. Also, the EC50 at β3 [2] is 9 nM.

Turning to `COC(=O)C1COc2cc(CC(C)NCC(O)c3cccc(Cl)c3)ccc2O1` (stereo not drawn) [Example 10, 6-{2-[2-(3-Chlorophenyl)-2-hydroxyethyl]amino}propyl-2,3-dihydro-1,4-benzodioxin-2-carboxylic acid methyl ester], the “Percent reduction … %” value in assay [1] stood at 48%. For the same molecule, the Emax at 1 µM at human β3 receptor was 43%. Consider `C[C@H](Cc1ccc(OCC(=O)O)cc1)NC[C@H](O)c1cccc(Cl)c1` (relative stereo) [BRL 37344], for which the “anti-obesity activity, in words” value in assay [3] is “anti-obesity activity”. The “anti-hyperglycemic activity, in words” value in assay [4] is recorded as “anti-hyperglycemic activity”. Regarding `CCOC(=O)[C@@H]1COc2cc(C[C@@H](C)NC[C@H](O)c3cccc(Cl)c3)ccc2O1` [Example 30, (2S,2'R,2"R)-6-{2-[2-(3-Chlorophenyl)-2-hydroxyethyl]amino}propyl-2,3-dihydro-1,4-benzodioxin-2-carboxylic acid ethyl ester], the EC50 at β3 [2] was determined as 16 nM.

`COC(=O)C1COc2cc(CC(C)NCC(O)c3ccc(F)cc3)ccc2O1` (stereo not drawn) [Example 12, 6-{2-[2-Hydroxy-2-(4-fluorophenyl)ethyl]amino}propyl-2,3-dihydro-1,4-benzodioxin-2-carboxylic acid methyl ester]: the half-maximal effective concentration (EC50) on β3 [2] turned out to be 26 nM. For the same molecule, at human β3 receptor, the Emax at 1 µM stood at 29%. In the case of `COC(=O)C1COc2cc(CC(C)NCC(O)c3cccc(C(F)(F)F)c3)ccc2O1` (stereo not drawn) [Example 11, 6-{2-[2-Hydroxy-2-(3-trifluoromethylphenyl)ethyl]amino}propyl-2,3-dihydro-1,4-benzodioxin-2-carboxylic acid methyl ester], at β3 [2], the EC50 is 2.4 nM. For `COC(=O)C1COc2cc(CC(C)NCC(O)c3cccc(C)c3)ccc2O1` (stereo not drawn) [Example 2, 6-{2-[2-Hydroxy-2-(3-tolyl)ethyl]amino}propyl-2,3-dihydro-1,4-benzodioxin-2-carboxylic acid methyl ester], on β3 [2], the EC50 came to 4 nM. Also, the Emax at 1 µM on human β3 receptor is 25%.
